Assay results published in patent US20050203172A1, “Novel compounds” (priority 2002, published 2005).
Counter-ions that a name gives are not always drawn.

Test system: human form of induced nitric oxide synthase in DLD-1 cells
Assay: Screen 3: nitrite accumulation (Griess) in cytokine-induced DLD-1 cells
Format: cell-based
Details: DLD-1 cells induced with gamma-IFN, TNF-alpha, IL-6, IL-1-beta, 5 hours with compound, read-out: IC50 (inhibition of nitrite accumulation)
Method: The human colorectal carcinoma cell line, DLD-1 (obtained from the European Collection of Animal Cell Culture—cell line number 90102540) was routinely grown in RPMI 1640 supplemented with 10% (v/v) foetal bovine serum, and 2 mM L-glutamine, at 37° C. in 5% CO2. Nitric oxide synthase was induced in cells by addition of medium containing human recombinant gamma-IFN (1000 units/ml), TNF-alpha (200 U/ml), IL-6 (200 U/ml) and IL-1-beta (250 U/ml). After incubation for 18 hours at 37° C., the medium was removed and the cells washed with warm phosphate buffered saline. Cells were incubated for a further 5 hours at 37° C./5% CO2 in RPMI 1640 containing 100 μM L-arginine and 100 μM verapamil-HCl in the presence and absence of test compounds. Nitrite accumulation was determined by mixing an equal volume of culture media with Griess reagent (10 mg/ml sulphanilamide, 1 mg N-(1-naphthyl)ethylenediamine in 1 ml 2.5% (v/v) phosphoric acid). Inhibition in the presence of compounds was calculated relative to the nitrite levels produced by untreated cells. IC50 values were estimated from a semi-log plot of % inhibition versus concentration of compound.

Structure (SMILES)	IC50 [µM]
Cc1cc(S[C@H](C[C@H](N)CO)c2ccccc2)c(C#N)s1 [Example 2, 3-[[(1R,3S)-3-Amino-4-hydroxy-1-phenylbutyl]thio]-5-methyl-2-thiophenecarbonitrile Oxalate]	< 100
N#Cc1sccc1S[C@H](C[C@H](N)CO)c1ccccc1 [Example 1, 3-[[(1R,3S)-3-Amino-4-hydroxy-1-phenylbutyl]thio]-2-thiophenecarbonitrile oxalate]	< 100
